Data as given in the NIST ThermoML archive (doi:10.1021/je201009c).

Assay: refractive index (Na D-line) (dimensionless); xn = mol fraction of the nth substance listed
Conditions: 101 kPa, Liquid, Standard Abbe refractometry

CC(=O)OCc1ccccc1 [benzyl ethanoate] + OCc1ccccc1
refractive index
Conditions | 293.15 K | 303.15 K | 313.15 K | 323.15 K
x1 = 0.05 | 1.53821 | 1.5339 | 1.52962 | 1.52532
x1 = 0.1001 | 1.53584 | 1.53143 | 1.52715 | 1.52278
x1 = 0.1502 | 1.53352 | 1.52903 | 1.52471 | 1.5203
x1 = 0.2001 | 1.53127 | 1.52673 | 1.52235 | 1.51791
x1 = 0.25 | 1.52907 | 1.52449 | 1.52007 | 1.5156
x1 = 0.3 | 1.52689 | 1.52231 | 1.51785 | 1.51335
x1 = 0.3498 | 1.5248 | 1.52022 | 1.51571 | 1.51118
x1 = 0.4001 | 1.52279 | 1.51819 | 1.51362 | 1.50908
x1 = 0.45 | 1.52083 | 1.51621 | 1.5116 | 1.50704
x1 = 0.5 | 1.51893 | 1.51428 | 1.50964 | 1.50506
x1 = 0.5501 | 1.5171 | 1.51239 | 1.50774 | 1.50314
x1 = 0.6001 | 1.5153 | 1.51057 | 1.5059 | 1.50128
x1 = 0.65 | 1.51352 | 1.50881 | 1.5041 | 1.49946
x1 = 0.6999 | 1.51182 | 1.50711 | 1.50237 | 1.49771
x1 = 0.7502 | 1.51014 | 1.50545 | 1.5007 | 1.49598
x1 = 0.8 | 1.50852 | 1.50383 | 1.49906 | 1.49434
x1 = 0.85 | 1.50696 | 1.50227 | 1.49748 | 1.49276
x1 = 0.9 | 1.50544 | 1.50075 | 1.49596 | 1.49124
x1 = 0.95 | 1.50396 | 1.49926 | 1.4945 | 1.48976
x1 = 1 | 1.50245 | 1.49776 | 1.49309 | 1.48834
